Test results reported in publication PMC5391094, “Characterizing the anti-inflammatory and tissue protective actions of a novel Annexin A1 peptide” (PLoS ONE, 2017).
pIC50: −log10 of the molar value. Values joined by “and” are separate entries in the source; they are usually repeats but may differ in a detail not shown here. Equal entries are not always repeated. Where no end group is shown, it is not given here.

What was measured:
human ALX receptor = target: T1, human ALX receptor (Homo sapiens, UniProt P25090); assay: Competitive binding assay with [125I-Tyr]-Ac2-26 tracer on ALX-HEK transfected cells; conditions: HEK cells overexpressing human ALX, 1x10^6 cells/ml; tracer 50nM; peptide 0.1nM-10μM; 1h, 4°C; mean of 3-4 independent experiments; read-out: IC50, displacement of 125I labelled Ac2-26 from ALX receptor
T1 construct: expressed in transfected cells; host or cells: HEK cells
T1 sequence (P25090 1-351): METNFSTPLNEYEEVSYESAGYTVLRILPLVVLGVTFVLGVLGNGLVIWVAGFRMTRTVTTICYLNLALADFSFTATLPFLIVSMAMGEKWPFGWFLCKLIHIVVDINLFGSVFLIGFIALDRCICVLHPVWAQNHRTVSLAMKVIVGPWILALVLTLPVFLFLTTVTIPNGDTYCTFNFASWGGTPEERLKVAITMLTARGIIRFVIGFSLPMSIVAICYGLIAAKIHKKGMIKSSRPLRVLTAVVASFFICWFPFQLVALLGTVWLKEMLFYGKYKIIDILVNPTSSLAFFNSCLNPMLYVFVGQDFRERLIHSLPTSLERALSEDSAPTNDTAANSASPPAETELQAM
Description: Binding experiments were conducted as in [13]. Briefly FPR1-human embryonic kidney (HEK)–or ALX-HEK—transfected cells (1x10^6 cells/ml) were incubated with increasing concentrations of cold CR-AnxA1_2-50, CR-AnxA1_2-48 (0.1nM-10μM) or PBS and a fixed concentration (50nM) of [^125I-Tyr]-Ac2-26 for (1h, 4°C). Bound and unbound tracer were separated by filtration through Whatman GF/C glass microfibre filters (Kent, United Kingdom) using a vacuum manifold, and the amount of tracer bound to the cells was quantified by counting filters in a gamma-counter.

[1] = tested on: activated human neutrophils; assay: Neutrophil-mediated degradation (peptide remaining in incubations with activated human neutrophils); assay type: in vitro ADME; conditions: incubation with activated human neutrophils; compared to parent peptide CR-AnxA1_2-50; mean ± SEM of n = 4 distinct incubations
Description: Therefore, we designed a peptide that in addition to having a substitution of Valine25 to Leucine, which we previously found to confer resistance to proteinease-3 and neutrophil elastae, also lacked Alanines at positions 49 and 50 (Fig 1A).
Fig 1 CR-AnxA1_2-48 is resistant to neutrophil mediated cleavage and selectively binds the ALX receptor. (A) Aminoacid sequences for CR-AnxA1_2–50 and CR-AnxA1_2–48 (B) Plots depicting the amount of peptide remaining at the indicated intervals in incubations of human neutrophil with CR-AnxA1_2–50 or CR-AnxA1_2–48. Results are mean ± SEM of n = 4 distinct incubations with different neutrophil preparations. *p < 0.05 versus AnxA1_2–48 incubations. (C,D) Binding affinity of CR-AnxA1_2–48 to (C) human ALX-overexpressing and (D) FPR1-overexpressing HEK cells was assessed in a competitive binding assay using [^125I]–Ac2-26. (E) Agonist activity of CR-AnxA1_2–48 was investigated using β-arrestin stably expressing FPR2/ALX. Results for C-E are mean ± SEM of 3–4 independent experiments. TEXT PRINTED IN THE PICTURE: (C) CR-ANXA12-48: IC50= 20 nM

ALX = conditions: cited from earlier work
From the text: The ALX receptor is a G-protein coupled receptor that mediates the biological actions of a number of pro-resolving molecules including the essential fatty acid derived specialized pro-resolving mediators Resolvin D1, Resolvin D3 and Lipoxin A4 [32].

| Substance | pIC50 (human ALX receptor) | Resistance to neutrophil mediated cleavage (amount of peptide remaining) [1] | Binding affinity to ALX relative to FPR1 (ALX) |
| --- | --- | --- | --- |
| AMVSEFLKQAWFIENEEQEYVQTLKSSKGGPGSAVSPYPTFNPSSDV-NH2 [CR-AnxA1_2-48] | ~7.70 and 7.70 | significant increase in resistance to neutrophil mediated cleavage |  |
| fMLF |  |  | about a log order lower |
